The test system of the test is Sox2. The experiment in a line: Real-time PCR, Sox2 gene expression in ES cells. In kind it is cell-based, mouse. The conditions noted are these: for Sox2 gene expression level: ES cells, control group = 100%. On the procedure: The following steps were conducted in order to culture ES cells: • (1) preparing a stem cell medium: DMEM+15% heat-inactivated FBS+NEAA (0.1 mM)+L-glutamine (2 mM)+β-mercaptoethanol (0.2 mM); • (2) preparing a BP-containing solution: dissolving BP into DMSO to form a BP-containing solution (100 mg/ml), and storing the solution at −20° C.; • (3) adding different amounts of the BP-containing solution in step (2) into the stem cell medium in step (1) to form different BP-containing mediums, wherein the amount of BP were about 5, 10, 20 or 40 μg per milliliter of the stem cell medium respectively (i.e. the experimental group mediums: BP5, BP10, BP20 and BP40); and • (4) using the BP-containing medium of in step (3) to culture a ES cell (retrieved from the embryos in the blastula stage of 129sv/J mice) at 37° C., 5% CO2 and 95% humidity on the feeder cells provided by Example 1.
An experimental group medium (BP5, BP10, BP20 or BP40) and a control group medium (without BP) were added respectively to perform the following steps. ES cells were cultured with an initial density of 1×10^4 per well in a 6-well culture dish. The medium was removed until the cells growth to be about 70 to 80% confluence, and then 1 ml TRIzol (Invitrogen) was added into each well. The cells were incubated for 5 minutes, and then was scraped by a spatula and placed into a 1.5 ml microtube to be lysed adequately. Chloroform (0.2 ml) was added into the microtubes. The mixture was shaken up and down for 15 seconds, and then incubated at room temperature for 2 to 3 minutes. Thereafter, the mixture was centrifuged at 12000 rpm at 4° C. for 15 minutes, and the supernatant was removed into another 1.5 ml microtube and isopropanol (0.5 ml) was added into the microtube with well mixing. The mixture was incubated at room temperature for 10 minutes and then centrifuged at 12000 rpm at 4° C. for 10 minutes. The supernatant was then removed. One ml of 70% ethanol containing DEPC.H2O was used to wash the remaining sediment. The sediment was centrifuged at 7500 rpm at 4° C. for 5 minutes. The supernatant was removed. The sediment was dried by vacuum suction. The dried samples were dissolved in about 0.01 to 0.02 ml of DEPC.H2O to obtain the experimental group RNA and control group RNA. Both groups were stored at −80° C.
The OD value of RNA samples in both groups obtained from the above Experiment I were measured at a wavelength of 260 nm (RNA: OD260=1 for a 40 μg/mL solution). Each RNA sample (2 μl) was added with RNA-free water until the volume of the sample reached 10 μl. Two μl oligo (dT) (100 μg/ml) was added into each sample, and the samples were incubated at 65° C. for 5 minutes. Then, the samples were immediately placed on ice and spun down. Next, 6.5 μl of a reaction solution [4 μl of 5× buffer+1 μl of 0.1 M DTT+1 μl of RNase out+0.5 μl of SSIII (Invitrogen)] was added into each of the samples, and the samples were incubated at 50° C. for about 30 to 60 minutes and at 75° C. for 15 minutes to obtain the experimental group cDNA and control group cDNA. Both groups were stored at −80° C.
This experiment was used to detect the expression levels of ES cell-related genes, i.e., Oct4 and Sox2, etc. […] The cycle threshold (CT) values were measured.
A general note: In qPCR the cycle at which signal appears reflects the starting amount.

The structures appear in SMILES notation.

As to `CCCC=C1OC(=O)c2ccccc21` [BP, n-butylidenephthalide], the “Sox2 gene expression level” value (BP5 medium (about 5 μg BP/ml)) was found to be 91%, the “Sox2 gene expression level” value (BP10 medium (about 10 μg BP/ml)) was 245%, the “Sox2 gene expression level” value (BP20 medium (about 20 μg BP/ml)) is listed as 210% and the “Sox2 gene expression level” value (BP40 medium (about 40 μg BP/ml)) was found to be 140%. Also, the “gene expression level of Sox2” value (BP-containing ES cell culture medium vs control group, result in words) is listed as “significantly up-regulated”.

For the origin of these results see patent US20150056702A1, “METHOD AND KIT FOR CULTURING STEM CELLS” (China Medical University, priority 2013, published 2015).
